# In patent publication US9296741B2, “Bromodomain inhibitors” (priority 2012, dated 2016):
# Legend:
# [1] = target: human BRD4 second bromodomain (BDII_E352-M457) (Homo sapiens (Human), UniProt O60885); assay: TR-FRET bromodomain binding assay, BRD4 second bromodomain
# [2] = target: human BRD4 first bromodomain (BDI_K57-E168) (Homo sapiens (Human), UniProt O60885); assay: TR-FRET bromodomain binding assay, BRD4 first bromodomain
# [3] = Rat liver microsome stability assay; assay type: in vitro ADME; conditions: rat liver microsomes (male Sprague-Dawley), 0.5 μM test compound, 0.25 mg/mL microsomal protein, pH 7.4, 37° C.; read-out: Stability in rat liver microsomes (t1/2 in minutes)
# [4] = Mouse liver microsome stability assay; assay type: in vitro ADME; conditions: male, CD1, mouse, microsomes, pH 7.4
# [5] = Human liver microsome stability assay; assay type: in vitro ADME; conditions: both sexes, human, microsomes, pH 7.4
# [6] = tested on: breast cancer cell line MX-1; assay: MX-1 cell line proliferation assay; assay type: cell-based, human; conditions: Homo sapiens, MX1, 72 h; MX-1 cells, 3-day proliferation, Cell Titer Glo; read-out: Cellular proliferation: EC50
structure (smiles),measurement,setting,value
"Cn1cc(-c2cc(S(C)(=O)=O)ccc2Oc2ccc(F)cc2F)c2cc(CNc3ccccc3)[nH]c2c1=O [Example 282, 4-[2-(2,4-difluorophenoxy)-5-(methylsulfonyl)phenyl]-6-methyl-2-[(phenylamino)methyl]-1,6-dihydro-7H-pyrrolo[2,3-c]pyridin-7-one]",Ki,[1],72.3 nM
same,Ki,[2],17.3 nM
same,half-life at 0.5 μM,[3],21 min
same,half-life at 0.5 μM,[4],7 min
same,half-life at 0.5 μM,[5],9 min
same,EC50,[6],204 nM
"Cn1cc(-c2cc(S(C)(=O)=O)ccc2Oc2ccc(F)cc2F)c2cc(CNc3nccs3)[nH]c2c1=O [Example 283, 4-[2-(2,4-difluorophenoxy)-5-(methylsulfonyl)phenyl]-6-methyl-2-[(1,3-thiazol-2-ylamino)methyl]-1,6-dihydro-7H-pyrrolo[2,3-c]pyridin-7-one]",Ki,[1],34.6 nM
same,Ki,[2],18.9 nM
same,half-life at 0.5 μM,[3],22 min
same,half-life at 0.5 μM,[4],12 min
same,half-life at 0.5 μM,[5],7 min
same,EC50,[6],138 nM
"Cn1cc(-c2cc(S(C)(=O)=O)ccc2Oc2ccc(F)cc2F)c2cc(CNC3CCOC3)[nH]c2c1=O (stereo not drawn) [Example 284, 4-[2-(2,4-difluorophenoxy)-5-(methylsulfonyl)phenyl]-6-methyl-2-[(tetrahydrofuran-3-ylamino)methyl]-1,6-dihydro-7H-pyrrolo[2,3-c]pyridin-7-one]",Ki,[1],130 nM
same,Ki,[2],18.3 nM
same,half-life at 0.5 μM,[3],108 min
same,half-life at 0.5 μM,[4],> 120 min
same,half-life at 0.5 μM,[5],12 min
same,EC50,[6],131 nM
"Cn1cc(-c2cc(S(=O)(=O)c3ccccc3)ccc2OCC2CC2)c2cc[nH]c2c1=O [Example 285, 4-[2-(cyclopropylmethoxy)-5-(phenylsulfonyl)phenyl]-6-methyl-1,6-dihydro-7H-pyrrolo[2,3-c]pyridin-7-one]",Ki,[1],7.5 nM
same,Ki,[2],10.8 nM
same,half-life at 0.5 μM,[3],10 min
same,half-life at 0.5 μM,[4],12 min
same,half-life at 0.5 μM,[5],19 min
same,EC50,[6],111 nM
"Cn1cc(-c2cc(S(C)(=O)=O)ccc2Oc2ccc(F)cc2F)c2cc(COc3ccccc3)[nH]c2c1=O [Example 292, 4-[2-(2,4-difluorophenoxy)-5-(methylsulfonyl)phenyl]-6-methyl-2-(phenoxymethyl)-1,6-dihydro-7H-pyrrolo[2,3-c]pyridin-7-one]",Ki,[1],55.8 nM
same,Ki,[2],53.2 nM
same,half-life at 0.5 μM,[3],22 min
same,half-life at 0.5 μM,[4],12 min
same,half-life at 0.5 μM,[5],8 min
same,EC50,[6],366 nM
"Cn1cc(-c2cc(S(=O)(=O)N3CCOCC3)ccc2Oc2ccc(F)cc2F)c2cc[nH]c2c1=O [Example 293, 4-[2-(2,4-difluorophenoxy)-5-(morpholin-4-ylsulfonyl)phenyl]-6-methyl-1,6-dihydro-7H-pyrrolo[2,3-c]pyridin-7-one]",Ki,[1],19.3 nM
same,Ki,[2],180 nM
same,half-life at 0.5 μM,[3],9 min
same,half-life at 0.5 μM,[4],3 min
same,half-life at 0.5 μM,[5],4 min
same,EC50,[6],381 nM
"Cn1cc(-c2cc(NS(=O)(=O)CCN3CCOCC3)ccc2Oc2ccc(F)cc2F)c2cc[nH]c2c1=O [Example 295, N-[4-(2,4-difluorophenoxy)-3-(6-methyl-7-oxo-6,7-dihydro-1H-pyrrolo[2,3-c]pyridin-4-yl)phenyl]-2-(morpholin-4-yl)ethanesulfonamide]",Ki,[1],30.7 nM
same,Ki,[2],27.9 nM
same,half-life at 0.5 μM,[3],15 min
same,half-life at 0.5 μM,[4],3 min
same,half-life at 0.5 μM,[5],7 min
same,EC50,[6],223 nM
"CCS(=O)(=O)N(CCN(C)C)c1ccc(Oc2ccc(F)cc2F)c(-c2cn(C)c(=O)c3[nH]ccc23)c1 [Example 296, N-[4-(2,4-difluorophenoxy)-3-(6-methyl-7-oxo-6,7-dihydro-1H-pyrrolo[2,3-c]pyridin-4-yl)phenyl]-N-[2-(dimethylamino)ethyl]ethanesulfonamide]",Ki,[1],101 nM
same,Ki,[2],705 nM
same,half-life at 0.5 μM,[3],13 min
same,half-life at 0.5 μM,[4],6 min
same,half-life at 0.5 μM,[5],7 min
same,EC50,[6],535 nM
"CCS(=O)(=O)C(C)(C)c1ccc(Oc2ccc(F)cc2F)c(-c2cn(C)c(=O)c3[nH]ccc23)c1 [Example 298, 4-{2-(2,4-difluorophenoxy)-5-[2-(ethylsulfonyl)propan-2-yl]phenyl}-6-methyl-1,6-dihydro-7H-pyrrolo[2,3-c]pyridin-7-one]",Ki,[1],3.1 nM
same,Ki,[2],2.9 nM
same,half-life at 0.5 μM,[3],47 min
same,half-life at 0.5 μM,[4],3 min
same,half-life at 0.5 μM,[5],9 min
same,EC50,[6],6.1 nM
"CN(C)CCS(=O)(=O)Nc1ccc(Oc2ccc(F)cc2F)c(-c2cn(C)c(=O)c3[nH]ccc23)c1 [Example 300, N-[4-(2,4-difluorophenoxy)-3-(6-methyl-7-oxo-6,7-dihydro-1H-pyrrolo[2,3-c]pyridin-4-yl)phenyl]-2-(dimethylamino)ethanesulfonamide]",Ki,[1],190 nM
same,Ki,[2],389 nM
same,half-life at 0.5 μM,[3],21 min
same,half-life at 0.5 μM,[4],17 min
same,half-life at 0.5 μM,[5],30 min
same,EC50,[6],176 nM
"CCOC(=O)N1CCC(Oc2ccc(S(=O)(=O)CC)cc2-c2cn(C)c(=O)c3[nH]ccc23)CC1 [Example 301, ethyl 4-[4-(ethylsulfonyl)-2-(6-methyl-7-oxo-6,7-dihydro-1H-pyrrolo[2,3-c]pyridin-4-yl)phenoxy]piperidine-1-carboxylate]",Ki,[1],15.5 nM
same,Ki,[2],17.9 nM
same,half-life at 0.5 μM,[3],82 min
same,half-life at 0.5 μM,[4],13 min
same,half-life at 0.5 μM,[5],20 min
same,EC50,[6],42.1 nM
"Cn1cc(-c2cc(S(=O)(=O)N3CCCC3)ccc2OCC2CC2)c2cc[nH]c2c1=O [Example 302, 4-[2-(cyclopropylmethoxy)-5-(pyrrolidin-1-ylsulfonyl)phenyl]-6-methyl-1,6-dihydro-7H-pyrrolo[2,3-c]pyridin-7-one]",Ki,[1],3.5 nM
same,Ki,[2],5.8 nM
same,half-life at 0.5 μM,[3],4 min
same,half-life at 0.5 μM,[4],3 min
same,half-life at 0.5 μM,[5],5 min
same,EC50,[6],16.9 nM
"CCS(=O)(=O)c1ccc(OC2CCN(C(C)=O)CC2)c(-c2cn(C)c(=O)c3[nH]ccc23)c1 [Example 303, 4-{2-[(1-acetylpiperidin-4-yl)oxy]-5-(ethylsulfonyl)phenyl}-6-methyl-1,6-dihydro-7H-pyrrolo[2,3-c]pyridin-7-one]",Ki,[1],7.1 nM
same,Ki,[2],3.9 nM
same,half-life at 0.5 μM,[3],69 min
same,half-life at 0.5 μM,[4],> 120 min
same,half-life at 0.5 μM,[5],42 min
same,EC50,[6],335 nM
"Cn1cc(-c2cc(S(=O)(=O)N3CCc4ccccc43)ccc2OCC2CC2)c2cc[nH]c2c1=O [Example 305, 4-[2-(cyclopropylmethoxy)-5-(2,3-dihydro-1H-indol-1-ylsulfonyl)phenyl]-6-methyl-1,6-dihydro-7H-pyrrolo[2,3-c]pyridin-7-one]",Ki,[1],25.7 nM
same,Ki,[2],327 nM
same,half-life at 0.5 μM,[3],2 min
same,half-life at 0.5 μM,[4],2 min
same,half-life at 0.5 μM,[5],1 min
same,EC50,[6],110 nM
"Cn1cc(-c2cc(CS(=O)(=O)c3ccccc3)ccc2Oc2ccc(F)cc2F)c2cc[nH]c2c1=O [Example 306, 4-{2-(2,4-difluorophenoxy)-5-[(phenylsulfonyl)methyl]phenyl}-6-methyl-1,6-dihydro-7H-pyrrolo[2,3-c]pyridin-7-one]",Ki,[1],63.9 nM
same,Ki,[2],82.2 nM
same,half-life at 0.5 μM,[3],9 min
same,half-life at 0.5 μM,[4],3 min
same,half-life at 0.5 μM,[5],11 min
same,EC50,[6],51.6 nM
"Cn1cc(-c2cc(S(=O)(=O)N3CCCC3)ccc2OCC2CC2(F)F)c2cc[nH]c2c1=O (stereo not drawn) [Example 307, 4-{2-[(2,2-difluorocyclopropyl)methoxy]-5-(pyrrolidin-1-ylsulfonyl)phenyl}-6-methyl-1,6-dihydro-7H-pyrrolo[2,3-c]pyridin-7-one]",Ki,[1],2.9 nM
same,Ki,[2],2.4 nM
same,half-life at 0.5 μM,[3],3 min
same,half-life at 0.5 μM,[4],2 min
same,half-life at 0.5 μM,[5],3 min
same,EC50,[6],122 nM
"Cn1cc(-c2cc(S(C)(=O)=O)ccc2Oc2ccccc2CCO)c2cc[nH]c2c1=O [Example 309, 4-{2-[2-(2-hydroxyethyl)phenoxy]-5-(methylsulfonyl)phenyl}-6-methyl-1,6-dihydro-7H-pyrrolo[2,3-c]pyridin-7-one]",Ki,[1],16.9 nM
same,Ki,[2],30.6 nM
same,half-life at 0.5 μM,[3],> 120 min
same,half-life at 0.5 μM,[4],> 120 min
same,half-life at 0.5 μM,[5],> 120 min
same,EC50,[6],85.9 nM
"CN(C)C1CCN(S(=O)(=O)c2ccc(OCC3CC3)c(-c3cn(C)c(=O)c4[nH]ccc34)c2)C1 (stereo not drawn) [Example 310, 4-[2-(cyclopropylmethoxy)-5-{[3-(dimethylamino)pyrrolidin-1-yl]sulfonyl}phenyl]-6-methyl-1,6-dihydro-7H-pyrrolo[2,3-c]pyridin-7-one]",Ki,[1],71.1 nM
same,Ki,[2],40.9 nM
same,half-life at 0.5 μM,[3],5 min
same,half-life at 0.5 μM,[4],9 min
same,half-life at 0.5 μM,[5],8 min
same,EC50,[6],103 nM
"CCS(=O)(=O)c1ccc(OC2CCN(C(=O)OC(C)(C)C)CC2)c(-c2cn(C)c(=O)c3[nH]ccc23)c1 [Example 312, tert-butyl 4-[4-(ethylsulfonyl)-2-(6-methyl-7-oxo-6,7-dihydro-1H-pyrrolo[2,3-c]pyridin-4-yl)phenoxy]piperidine-1-carboxylate]",Ki,[1],19 nM
same,Ki,[2],14.1 nM
same,half-life at 0.5 μM,[3],32 min
same,half-life at 0.5 μM,[4],9 min
same,half-life at 0.5 μM,[5],56 min
same,EC50,[6],67.5 nM
"Cn1cc(-c2cc(S(=O)(=O)Nc3ccccc3)ccc2OCC2CC2)c2cc[nH]c2c1=O [Example 313, 4-(cyclopropylmethoxy)-3-(6-methyl-7-oxo-6,7-dihydro-1H-pyrrolo[2,3-c]pyridin-4-yl)-N-phenylbenzenesulfonamide]",Ki,[1],6.1 nM
same,Ki,[2],15.8 nM
same,half-life at 0.5 μM,[3],4 min
same,half-life at 0.5 μM,[4],3 min
same,half-life at 0.5 μM,[5],5 min
same,EC50,[6],50.9 nM
